Results as given in PMC11684029, “Discovery of VU6024578/BI02982816: An mGlu1 Positive Allosteric Modulator with Efficacy in Preclinical Antipsychotic and Cognition Models” (Journal of Medicinal Chemistry, 2024).

Legend:
human mGlu1 = molecular target: T1, human mGlu1 (Homo sapiens, UniProt Q13255); experiment: mGlu1 calcium mobilization (triple-add) PAM assay; assay type: cell-based
T1 construct: expressed in transfected cells; pcDNA5/TO)
Protocol: Tetracycline-inducible human mGlu1 WT-T-REx-293 cells (Wu et al, Science 2014) were cultured at 37 °C in Dulbecco’s Modified Eagle Medium (DMEM) growth medium containing 10% Tet-tested FBS, 2 mM L-glutamine, 20 mM HEPES, 0.1 mM nonessential amino acids, 1 mM sodium pyruvate, antibiotic/antimycotic, 100 μg/mL hygromycin and 5 μg/mL blasticidin in the presence of 5% CO2. […] The mutant stable cell lines were generated in the same manner as the WT as previously described and cultured in the growth medium described above.
To determine the potency of mGlu1 PAMs in calcium assays, Ca flux was measured as previously described in ACS Chem. Bio. 2014, 9, 2334–2346. Briefly, the day before the assay, human mGlu1 WT-T-REx-293 cells were plated in black-walled, clear-bottomed, poly-D-lysine coated 96-well plates at 80,000 cells/100 μL assay medium (DMEM supplemented with 10% dialyzed FBS, 20 mM HEPES, and 1 mM sodium pyruvate) containing 50 ng/mL of tetracycline to induce mGlu1 expression. The next day, media was removed and the cells were incubated with 50 μL of 1.15 μM Fluo-4 AM dye solution prepared in assay buffer (buffer (Hank’s balanced salt solution, 20 mM HEPES, and 2.5 mM probenecid) for 45 min at 37 °C, the dye was removed and replaced with 45 μL of assay buffer. Then, calcium flux was measured using Flexstation II (Molecular Devices, Sunnyvale, CA). Compounds serially diluted at half log concentrations in DMSO were further diluted in assay buffer. The compounds or DMSO vehicle were added to cells and incubated for 2.5 min and an EC20 concentration of glutamate was added and incubated for 1 min. An ECmax concentration of glutamate was also added to cells that were incubated with DMSO vehicle to accurately calculate the EC20 calcium response. Data were normalized by subtracting the basal florescent peak before EC20 agonist addition from the maximal peak elicited by EC20 agonist and PAMs. Using GraphPad Prism 5.0, the concentration response curves were generated and the potencies of the mGlu1 PAMs were determined.

rat mGlu1 = rat mGlu1 (Rattus norvegicus, UniProt P23385); experiment: mGlu1 calcium mobilization PAM assay; assay type: cell-based; conditions: PAM, calcium flux
[1] = PAM, calcium flux, EC20 glutamate

Chain of rat mGlu1 (P23385 19-1199): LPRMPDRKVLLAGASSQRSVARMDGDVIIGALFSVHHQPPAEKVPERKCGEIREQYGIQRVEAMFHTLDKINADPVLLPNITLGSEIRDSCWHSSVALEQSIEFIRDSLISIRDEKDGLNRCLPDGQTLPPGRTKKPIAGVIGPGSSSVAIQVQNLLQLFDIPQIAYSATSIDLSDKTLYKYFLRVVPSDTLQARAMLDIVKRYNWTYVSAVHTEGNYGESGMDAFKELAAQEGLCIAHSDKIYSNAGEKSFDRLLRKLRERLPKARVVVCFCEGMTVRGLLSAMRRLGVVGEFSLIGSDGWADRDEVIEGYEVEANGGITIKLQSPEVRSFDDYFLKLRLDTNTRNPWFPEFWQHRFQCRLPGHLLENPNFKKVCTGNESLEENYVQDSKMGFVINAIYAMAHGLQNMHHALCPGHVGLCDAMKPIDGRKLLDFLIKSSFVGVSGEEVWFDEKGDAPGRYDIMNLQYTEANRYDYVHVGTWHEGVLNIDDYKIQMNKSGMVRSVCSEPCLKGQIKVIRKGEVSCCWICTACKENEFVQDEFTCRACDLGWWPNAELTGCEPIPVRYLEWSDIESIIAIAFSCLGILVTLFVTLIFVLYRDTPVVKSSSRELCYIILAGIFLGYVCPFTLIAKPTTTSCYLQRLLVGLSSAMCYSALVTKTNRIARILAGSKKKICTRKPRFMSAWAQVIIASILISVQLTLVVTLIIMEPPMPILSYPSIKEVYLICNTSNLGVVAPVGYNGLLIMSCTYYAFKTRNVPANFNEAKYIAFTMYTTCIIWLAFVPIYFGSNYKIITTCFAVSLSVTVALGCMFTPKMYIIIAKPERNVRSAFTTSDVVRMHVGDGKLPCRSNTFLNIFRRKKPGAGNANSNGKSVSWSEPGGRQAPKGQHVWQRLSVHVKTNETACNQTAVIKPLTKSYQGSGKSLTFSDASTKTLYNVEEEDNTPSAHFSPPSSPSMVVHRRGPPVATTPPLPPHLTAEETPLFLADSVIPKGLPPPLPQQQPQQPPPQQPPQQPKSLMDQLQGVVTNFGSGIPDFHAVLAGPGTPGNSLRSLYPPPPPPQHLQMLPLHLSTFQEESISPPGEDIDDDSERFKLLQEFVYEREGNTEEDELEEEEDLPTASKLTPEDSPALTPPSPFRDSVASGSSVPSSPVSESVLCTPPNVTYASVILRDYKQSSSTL
T1 sequence (Q13255 19-1194): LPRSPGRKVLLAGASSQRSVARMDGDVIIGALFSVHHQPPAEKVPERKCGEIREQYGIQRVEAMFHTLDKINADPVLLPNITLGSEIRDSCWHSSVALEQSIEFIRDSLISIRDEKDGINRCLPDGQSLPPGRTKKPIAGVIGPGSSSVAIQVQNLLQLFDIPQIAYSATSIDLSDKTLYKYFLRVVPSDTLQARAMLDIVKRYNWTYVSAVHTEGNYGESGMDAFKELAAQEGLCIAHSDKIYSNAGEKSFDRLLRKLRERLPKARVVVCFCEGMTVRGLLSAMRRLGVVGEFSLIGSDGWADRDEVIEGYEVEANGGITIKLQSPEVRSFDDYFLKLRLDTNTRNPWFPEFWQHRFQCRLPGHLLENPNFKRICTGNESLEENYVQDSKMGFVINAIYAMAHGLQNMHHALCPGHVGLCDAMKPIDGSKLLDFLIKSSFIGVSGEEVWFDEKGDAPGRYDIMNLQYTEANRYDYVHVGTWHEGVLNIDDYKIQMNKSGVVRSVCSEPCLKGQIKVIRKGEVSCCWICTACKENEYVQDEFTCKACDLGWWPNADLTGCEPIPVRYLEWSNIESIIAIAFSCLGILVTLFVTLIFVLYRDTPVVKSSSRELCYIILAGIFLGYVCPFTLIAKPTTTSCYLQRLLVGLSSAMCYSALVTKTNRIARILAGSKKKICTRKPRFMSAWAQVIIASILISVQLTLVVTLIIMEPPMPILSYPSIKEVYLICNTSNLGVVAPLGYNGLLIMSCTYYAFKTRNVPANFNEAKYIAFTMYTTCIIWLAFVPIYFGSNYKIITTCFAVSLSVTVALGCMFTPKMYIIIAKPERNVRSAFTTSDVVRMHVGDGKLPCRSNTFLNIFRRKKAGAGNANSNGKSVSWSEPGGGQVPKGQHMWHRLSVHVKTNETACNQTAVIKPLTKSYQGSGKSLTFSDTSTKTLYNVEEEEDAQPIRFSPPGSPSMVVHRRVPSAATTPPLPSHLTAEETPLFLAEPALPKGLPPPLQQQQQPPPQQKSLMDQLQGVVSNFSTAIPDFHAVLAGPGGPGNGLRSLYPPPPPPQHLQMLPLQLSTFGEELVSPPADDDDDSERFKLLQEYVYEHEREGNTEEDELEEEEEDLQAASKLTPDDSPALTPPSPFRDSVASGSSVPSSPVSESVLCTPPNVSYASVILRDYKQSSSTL

EC50 (human mGlu1; [1])	human mGlu1 Glumax (human mGlu1; [1])	EC50 (rat mGlu1)	rat mGlu1 Glumax (rat mGlu1)	improvement in mGlu1 PAM potency over HTS hit 6 (human mGlu1; human mGlu1 EC50 ratio)	human mGlu1 EC50 (Glumax), result in words (human mGlu1; [1])	Compound
641 nM	35%					O=C(NCc1cnn2ccccc12)c1cc(-c2ccsc2)ccc1Cl [Compound 9h, 2-Chloro-N-(pyrazolo[1,5-a]pyridin-3-ylmethyl)-5-(thiophen-3-yl)benzamide]
714 nM	80%	509 nM	95%			O=C(NCc1nc(C2CC2)no1)c1cc(-c2ccco2)ccc1Cl [Compound 15d, 2-Chloro-N-((3-cyclopropyl-1,2,4-oxadiazol-5-yl)methyl)-5-(furan-2-yl)benzamide]
3790 nM	46%			~3 fold		O=C(NCc1cnn2ccccc12)c1cc(Cl)ccc1Cl [Compound 9d, 2,5-Dichloro-N-(pyrazolo[1,5-a]pyridin-3-ylmethyl)benzamide]
291 nM	51%	369 nM	75%			O=C(NCc1cnn2ccccc12)c1cc(-c2cccs2)ccc1Cl [Compound 9g, 2-Chloro-N-(pyrazolo[1,5-a]pyridin-3-ylmethyl)-5-(thiophen-2-yl)benzamide]
434 nM	33%	1010 nM	48%			O=C(NCc1cnn2ccccc12)c1cc(-c2ccccc2)ccc1Cl [Compound 9f, 4-Chloro-N-(pyrazolo[1,5-a]pyridin-3-ylmethyl)-[1,1′-biphenyl]-3-carboxamide]
7380 nM	62%					COc1ccc(C)cc1C(=O)NCc1cnn2ccccc12 [Compound 9b, 2-Methoxy-5-methyl-N-(pyrazolo[1,5-a]pyridin-3-ylmethyl)benzamide]
790 nM	61%	3150 nM	79%			O=C(NCc1cnn2ccccc12)c1cc(-c2nccs2)ccc1Cl [Compound 9i, 2-Chloro-N-(pyrazolo[1,5-a]pyridin-3-ylmethyl)-5-(thiazol-2-yl)benzamide]
					Inactive	Cn1nccc1-c1ccc(Cl)c(C(=O)NCc2cnn3ccccc23)c1 [Compound 9j, 2-Chloro-5-(1-methyl-1H-pyrazol-5-yl)-N-(pyrazolo[1,5-a]pyridin-3-ylmethyl)benzamide]
6060 nM	47%					Cc1ccc(Cl)cc1C(=O)NCc1cnn2ccccc12 [Compound 9c, 5-Chloro-2-methyl-N-(pyrazolo[1,5-a]pyridin-3-ylmethyl)benzamide]
> 10000 nM	71%					COc1ccc(Cl)cc1C(=O)NCc1cnn2ccccc12 [Compound 6, 5-Chloro-2-methoxy-N-(pyrazolo[1,5-a]pyridin-3-ylmethyl)benzamide]
5120 nM	45%					COc1ccc(OC)c(C(=O)NCc2cnn3ccccc23)c1 [Compound 9a, 2,5-Dimethoxy-N-(pyrazolo[1,5-a]pyridin-3-ylmethyl)benzamide]
10000 nM	44%					O=C(NCc1noc(C2CC2)n1)c1cc(-c2ccco2)ccc1Cl [Compound 15c, 2-Chloro-N-((5-cyclopropyl-1,2,4-oxadiazol-3-yl)methyl)-5-(furan-2-yl)benzamide]
